For assay [1], the target named is T1, GABAA2 receptors (α2, β3, γ2 receptor subunits) (Homo sapiens, UniProt P18507+P47869).
T1 construct: host or cells: Sf9 cells (membranes)
As to the kind of experiment: biochemical. The settings on record: [3H]-Flunitrazepam ~2 nM, α2β3γ2 Sf9 membranes, 1 hr at 4° C.; read-out: GABAA2 Binding Ki. The method, then: In some embodiments, the binding test was directed to a subtype of GABAA receptors, such as GABAA1 receptors (i.e., those containing the α1 subunit), GABAA2 receptors (i.e., those containing the α2 subunit), GABAA3 receptors (i.e., those containing the α3 subunit) and GABAA5 receptors (i.e., those containing the α5 subunit).
[formula] Method FF GABAA2 Binding Method Reagents
Assay and Wash Buffer: 50 mM Tris-Citrate, 200 mM NaCl, pH 7.8
Compounds at 10 mM in DMSO: Put 75 μl in column 1 of compound plate.
Flumazenil, 10 mM (for NSB)
[^3H]-Flunitrazepam (Cat #NET567): Prepare 10× stock=20 nM, [F} in assay=˜2 nM
1. […] Add 5 ul of 30 uM flumazenil to wells 12 D-E for 50% control wells.
2. Spot 2 μl of compound dilutions into dry plate (Automation Program 3). Manually spot 2 μl 10 mM flumazenil into wells 12 F-H for nonspecific control.
3. Make 1:100 dilution in assay buffer (2 μl into 200 μl) and dispense 25 μl compound into assay plates (Automation Program 4).
4. Dispense 200 μl membranes into assay plate (Automation Program 5).
5. Add 25 μl [^3H]-Flunitrazepam (Automation Program 6). Incubate for 1 hr at 4° C.
6. Collect membranes on a cell harvester onto GF/B filter plates (pre-wet with dH2O and wash 5×400 μl/well, with cold assay buffer. (First 3 washes are considered hot; last two are cold.)
7. Dry plates for 2-3 hours at RT.
8. Add 40 μl Microsecond 40/well (Automation Program 7); seal plates. Count on a Top Count.
Data is analyzed by calculating percent of control, IC50, and Kid in an Lift template. The following formula is used in the templates: […]

Assay [2] has as its target T2, GABAA1 (human α1β2γ2 GABAA receptor) (Homo sapiens, UniProt P14867+P18507).
T2 construct: expressed in transfected cells; host or cells: Xenopus laevis oocytes injected with capped cRNA
The assay is described as follows: Two-electrode voltage-clamp in Xenopus oocytes, potentiation of GABA EC10 current, GABAA1. Format: cell-based. The settings on record: percentage potentiation of GABA EC10 current divided by that of diazepam. The source says: (§1) Presently available GABAA modulator anxiolytics work via interactions at the classical benzodiazepine binding site. To a large degree these anxiolytics lack GABAA receptor subtype-selectivity. The subtype-selective GABAA receptor modulators may offer more advantages. […] Sedation, a side-effect common to all marketed benzodiazepines, is believed to be mediated by interactions at GABAARs containing the α1 subunit. To develop anxiolytics with minimal liabilities due to interactions with other subunits, an electrophysiological assay was developed to screen modulatory effects of various compounds on different GABA subunit combinations heterologously expressed in Xenopus oocytes.
(§2) GABAA receptors were heterologously expressed in Xenopus oocytes by injecting cRNA corresponding to human α1, α2, α3, α5, β2, β3 and γ2 subunits of the GABAA receptor genes. The specific subunit combinations (subtypes) were as follows: α1β2γ2, α2β3γ2, α3β3γ2, and α5β3γ2. The EC10 of GABA was approximated for each cell. Stability of GABA-mediated (EC10) current was established. Modulatory effect of test compound was determined and compared across subtypes. […] Thus, the assay can characterize modulatory effects and determine subtype selectivity of test compounds on major subtypes of GABAA receptors.
(§3) Xenopus laevis frogs (Xenopus I, Kalamazoo, MI) were anesthetized using 0. […] Surgically removed ovarian lobes were teased out in OR2 solution (82 NaCl, 2.5 KCl, 5 HEPES, 1.5 NaH2PO4, 1 MgCl2, 0.1 EDTA, in mM, pH 7.4). The acolytes were deflocculated by incubation in 25 mL OR2 containing 0.2% collagens 1A (SIGMA) two times for about 60 minutes on a platform shaker and stored in Leibovitz's L-15 medium. Acolytes were injected the following day in 0.5× Leibovitz's L-15 medium containing […] gentamycin, 10 units/ml penicillin, and […] streptomycin.
(§4) Capped cRNAs from the linear zed vectors containing human α1, β2 and γ2 subunits of the GABAA receptor genes were mixed in ratio of […]. Acolytes were injected with 25-50 nL of mixed RNA with an appx molar ratio for α1, β2 and γ2 as 1:1:10. Acolyte recordings were done 2-10 days after injection. The same methods apply to subtypes derived from α2β3γ2, α3β3γ2, and α5β3γ2, except for 1:1:1 ratio was used for α, β, and γ subunits.
(§5) All measurements were done in a medium containing ND-96 (96 NaCl, 2 KCl, 1.8 CaCl2.2H2O, 1 MgCl2.6H2O, 5 HEPES, in mM, pH 7.5). Two-electrode voltage-clamp recording was carried out using Opus press amplifier (Axon Instruments, Foster City, Calif.), which allows simultaneous recording from 8 acolytes. Acolytes were impaled with two electrodes of 1-2 MΩ tip resistance when filled with 3M KCl. Recordings were begun when membrane potential became stable at potentials negative to −50-−60 mV. Membrane potential was held at −60 mV. […] The concentration of GABA corresponded to the EC10 value calculated for each acolyte. The modulator pulses started 30 s before the GABA pulse so as to allow preoccupation with the modulator. A set of 3 pulses with just GABA without modulator was given prior to the modulator-containing pulses to define the baseline GABA response. Two acolytes per each experiment were dedicated to observe the effect of diazepam on GABA response to ensure the presence of γ subunit in the GABAA pantomimic complex, which imparts diazepam sensitivity to the complex.
(§6) Current amplitude (i) was measured from baseline to peak using Clamp fit (Axon Inst., Foster City, Calif.). Potentiating was calculated as percent change from the baseline GABA current flux 100×(imod/icontrol)−1) where imod=current mediated by modulator+GABA and icontrol=current mediated by GABA alone. […] Similarly, a value of −50% potentiating means the presence of modulator caused a 50% decrease in the control current.

Assay [3] concerns the target T3, GABAA2 (human α2β3γ2 GABAA receptor) (Homo sapiens, UniProt P18507+P47869).
T3 construct: expressed in transfected cells; host or cells: Xenopus laevis oocytes injected with capped cRNA
The assay is described as follows: Two-electrode voltage-clamp in Xenopus oocytes, potentiation of GABA EC10 current, GABAA2. The settings on record: percentage potentiation of GABA EC10 current divided by that of diazepam. Format: cell-based.
Excerpt: as §1, §2, §3, §4, §5, §6

Molecules are shown by their SMILES.

T2 sequence (P14867 28-456): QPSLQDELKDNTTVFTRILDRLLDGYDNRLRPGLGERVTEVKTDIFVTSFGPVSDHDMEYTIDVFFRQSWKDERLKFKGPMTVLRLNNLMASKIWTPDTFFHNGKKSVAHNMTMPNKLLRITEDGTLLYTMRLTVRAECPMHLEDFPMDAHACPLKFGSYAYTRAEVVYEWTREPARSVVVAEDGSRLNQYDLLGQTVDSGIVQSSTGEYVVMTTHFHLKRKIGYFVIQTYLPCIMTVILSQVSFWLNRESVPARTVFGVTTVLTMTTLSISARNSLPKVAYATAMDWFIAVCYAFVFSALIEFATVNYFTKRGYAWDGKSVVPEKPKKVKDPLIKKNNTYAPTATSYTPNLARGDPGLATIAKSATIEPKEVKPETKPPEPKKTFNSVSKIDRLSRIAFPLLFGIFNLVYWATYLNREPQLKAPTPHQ
T2 sequence (P47870 25-512 partner limits assumed): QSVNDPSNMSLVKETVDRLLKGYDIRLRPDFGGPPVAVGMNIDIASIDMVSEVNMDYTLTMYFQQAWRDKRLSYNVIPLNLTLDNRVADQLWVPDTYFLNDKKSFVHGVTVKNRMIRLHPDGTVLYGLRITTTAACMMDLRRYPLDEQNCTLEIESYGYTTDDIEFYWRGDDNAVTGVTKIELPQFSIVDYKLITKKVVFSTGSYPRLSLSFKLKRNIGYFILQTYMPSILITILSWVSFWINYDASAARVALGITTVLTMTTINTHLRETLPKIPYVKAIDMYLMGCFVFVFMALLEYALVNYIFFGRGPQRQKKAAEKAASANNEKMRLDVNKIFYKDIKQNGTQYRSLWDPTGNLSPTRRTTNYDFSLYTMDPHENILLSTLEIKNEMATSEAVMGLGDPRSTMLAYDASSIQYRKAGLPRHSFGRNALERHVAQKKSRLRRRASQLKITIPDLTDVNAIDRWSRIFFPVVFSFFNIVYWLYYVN
T2 sequence (P18507 40-475): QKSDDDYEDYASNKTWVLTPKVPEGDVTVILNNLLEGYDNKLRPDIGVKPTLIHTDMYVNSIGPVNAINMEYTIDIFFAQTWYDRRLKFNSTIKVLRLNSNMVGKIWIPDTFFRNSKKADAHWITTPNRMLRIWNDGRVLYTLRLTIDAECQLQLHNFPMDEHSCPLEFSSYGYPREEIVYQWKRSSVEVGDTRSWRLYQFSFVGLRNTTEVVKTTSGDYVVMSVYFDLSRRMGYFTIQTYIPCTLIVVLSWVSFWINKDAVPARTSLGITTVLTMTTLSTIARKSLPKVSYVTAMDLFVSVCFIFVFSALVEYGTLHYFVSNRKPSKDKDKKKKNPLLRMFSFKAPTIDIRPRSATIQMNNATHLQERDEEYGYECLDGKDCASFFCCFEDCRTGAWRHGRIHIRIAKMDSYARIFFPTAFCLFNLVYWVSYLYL
T1 sequence (P47869 29-451): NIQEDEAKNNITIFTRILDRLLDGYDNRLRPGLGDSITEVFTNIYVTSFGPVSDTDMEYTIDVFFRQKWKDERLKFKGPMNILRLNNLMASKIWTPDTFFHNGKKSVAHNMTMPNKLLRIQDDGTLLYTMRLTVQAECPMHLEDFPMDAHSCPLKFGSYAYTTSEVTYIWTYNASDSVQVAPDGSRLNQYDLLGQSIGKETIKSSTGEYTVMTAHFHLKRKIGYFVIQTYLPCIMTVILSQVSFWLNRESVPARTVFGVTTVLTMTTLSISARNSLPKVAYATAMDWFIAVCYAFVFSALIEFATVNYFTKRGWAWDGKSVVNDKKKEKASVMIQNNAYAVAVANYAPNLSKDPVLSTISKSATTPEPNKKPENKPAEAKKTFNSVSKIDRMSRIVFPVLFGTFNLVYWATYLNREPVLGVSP
T1 sequence (P28472 26-473 partner): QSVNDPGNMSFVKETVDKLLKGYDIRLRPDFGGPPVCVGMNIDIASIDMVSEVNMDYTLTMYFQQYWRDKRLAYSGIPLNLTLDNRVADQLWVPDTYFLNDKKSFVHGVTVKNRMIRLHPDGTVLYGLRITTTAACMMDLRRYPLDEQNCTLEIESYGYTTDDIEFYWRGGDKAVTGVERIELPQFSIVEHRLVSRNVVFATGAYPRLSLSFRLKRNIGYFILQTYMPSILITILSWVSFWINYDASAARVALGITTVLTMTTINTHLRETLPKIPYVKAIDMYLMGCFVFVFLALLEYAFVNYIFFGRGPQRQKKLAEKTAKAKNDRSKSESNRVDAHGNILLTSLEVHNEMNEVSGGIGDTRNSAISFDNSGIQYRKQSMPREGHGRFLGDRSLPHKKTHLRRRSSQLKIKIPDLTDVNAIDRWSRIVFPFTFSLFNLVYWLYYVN
T1 sequence (P18507 40-475): as the sequence (P18507 40-475) above
T3 sequence (P47869 29-451): as the sequence (P47869 29-451) above
T3 sequence (P28472 26-473 partner): as the sequence (P28472 26-473 partner) above
T3 sequence (P18507 40-475): as the sequence (P18507 40-475) above

Consider `CCNC(=O)c1nnc2c(-c3c(F)cccc3OC)cccc2c1N`, for which the Ki in assay [1] amounted to 0.301 nM. For the compound `CCCNC(=O)c1nnc2c(-c3cc(Cl)ccc3OC)c(F)ccc2c1N`, in assay [1], the Ki was determined as 0.327 nM. Besides, the “Relative Potentiation for GABAA1” value in assay [2] turned out to be 0.25. `CCCNC(=O)c1nnc2c(-c3c(F)cccc3OC)c(F)ccc2c1N`: the Ki in assay [1] turned out to be 0.341 nM. In the case of `CCCNC(=O)c1nnc2c(-c3cc(OC)cc(OC)c3)c(F)ccc2c1N`, the Ki in assay [1] was 0.552 nM. The “Relative Potentiation for GABAA1” value in assay [2] is recorded as 0.38. Regarding `CCCNC(=O)c1nnc2c(-c3ccc(OC)c(OC)c3OC)c(F)ccc2c1N`, the Ki in assay [1] was found to be 0.6 nM. The “Relative Potentiation for GABAA1” value in assay [2] worked out at 0.51. On the same counts, the results for `CCCNC(=O)c1nnc2c(-c3ccc(OC)cc3C(F)(F)F)c(F)ccc2c1N` are 0.624 nM and 0.28. As for `COc1ccc(-c2cccc3c(N)c(C(=O)NC4CC4)nnc23)c(OC)n1`, in assay [1], the Ki is 1 nM.

Regarding `CCCNC(=O)c1nnc2c(-c3ccc(F)cc3OCC)c(F)ccc2c1N`, in assay [1], the inhibitory constant (Ki) was 1.03 nM. The “Relative Potentiation for GABAA1” value in assay [2] is on record as 0.27.

For `CCCNC(=O)c1nnc2c(-c3cc(Cl)ccc3Cl)c(F)ccc2c1N`, the Ki in assay [1] is 1.34 nM. The “Relative Potentiation for GABAA1” value in assay [2] worked out at 0.21. `COc1ccc(-c2cccc3c(N)c(C(=O)NC4CC4)nnc23)c(OC)c1`: the inhibition constant (Ki) in assay [1] was 2.07 nM. Turning to `CCCNC(=O)c1nnc2c(-c3cccnc3OC)cccc2c1N`, the inhibition constant Ki in assay [1] came to 2.1 nM. The “Relative Potentiation for GABAA1” value in assay [2] was 0.2. Moreover, the “Relative Potentiation for GABAA2” value in assay [3] was determined as 0.097. On the same counts, the results for `CCCNC(=O)c1nnc2c(-c3cncc(C(=O)N4CCC4)c3)cccc2c1N` are 2.34 nM, −0.11 and −0.033. For `CCCNC(=O)c1nnc2c(-c3ccc(OC)cc3C(F)(F)F)cccc2c1N`, the Ki in assay [1] was found to be 2.42 nM. Further, in assay [2], the “Relative Potentiation for GABAA1” value amounted to 0.12. Moreover, the “Relative Potentiation for GABAA2” value in assay [3] amounted to 0.16. For `CCCNC(=O)c1nnc2c(-c3ccc(OC)cc3OC)cccc2c1N`, the inhibition constant (Ki) in assay [1] was 2.5 nM. In assay [2], the “Relative Potentiation for GABAA1” value is 0.18. Besides, the “Relative Potentiation for GABAA2” value in assay [3] was 0.15. On the same counts, the results for `CCCNC(=O)c1nnc2c(-c3cccnc3)cccc2c1N` are 2.6 nM, −0.11 and 0.054.

Take `CCCNC(=O)c1nnc2c(-c3ccc(OC)cc3OC)c(C#N)ccc2c1N`: the Ki in assay [1] was 2.69 nM.

For the compound `CCCNC(=O)c1nnc2c(-c3cnc(OC)nc3OC)c(Cl)ccc2c1N`, in assay [1], the Ki turned out to be 2.73 nM. Besides, the “Relative Potentiation for GABAA1” value in assay [2] is 0.19. In addition, the “Relative Potentiation for GABAA2” value in assay [3] is recorded as 0.29. In the same order, the values of `CCCNC(=O)c1nnc2c(-c3ccc(OC)c(F)c3)c(F)ccc2c1N` are 2.88 nM, 0.1 and 0.16.

Take `CCCNC(=O)c1nnc2c(-c3cc(C)ccc3OC)c(Cl)ccc2c1N`: in assay [1], the Ki worked out at 2.89 nM. Further, the “Relative Potentiation for GABAA1” value in assay [2] was found to be 0.47. Regarding `CCCNC(=O)c1nnc2c(-c3ccc(OC)cc3OC)c(Cl)ccc2c1N`, the Ki in assay [1] was 5.71 nM. The “Relative Potentiation for GABAA1” value in assay [2] is given as 0.87. In the same order, the values of `CCCNC(=O)c1nnc2c(-c3nc(Br)ccc3OC)cccc2c1N` are 7.51 nM and 0.34.

Take `CCNC(=O)c1nnc2c(-c3cc(C)ccc3OC)cccc2c1N`: the inhibitory constant (Ki) in assay [1] stood at 10.5 nM. The “Relative Potentiation for GABAA1” value in assay [2] came out at 0.23. Consider `CCCCNC(=O)c1nnc2c(-c3cc(C)ccc3OC)cccc2c1N`, for which the inhibitory constant (Ki) in assay [1] amounted to 13.3 nM. Further, the “Relative Potentiation for GABAA1” value in assay [2] stood at 0.32.

Regarding `CCCNC(=O)c1nnc2c(-c3cc(OC)ccc3OC)c(Cl)ccc2c1N`, in assay [1], the Ki was determined as 13.9 nM. The “Relative Potentiation for GABAA1” value in assay [2] stood at 0.32.

Consider `COc1ccc(C)cc1-c1cccc2c(N)c(C(=O)NC3CC3)nnc12`, for which the inhibitory constant (Ki) in assay [1] is 15.2 nM. In the case of `CCCNC(=O)c1nnc2c(-c3cc(Cl)cc(Cl)c3)c(F)ccc2c1N`, the inhibition constant (Ki) in assay [1] was 16.1 nM. For the same compound, the “Relative Potentiation for GABAA1” value in assay [2] came out at 0.36. In the same order, the values of `CCCNC(=O)c1nnc2c(-c3cc(C(=O)N4CCC4)ccc3OC)cccc2c1N` are 18.4 nM and 0.48. For the compound `CNC(=O)c1nnc2c(-c3cnc(OC)nc3OC)cccc2c1N`, in assay [1], the inhibition constant (Ki) stood at 514 nM. With `CCCNC(=O)c1nnc2c(-c3c(OC)cccc3OC)cccc2c1N`, the Ki in assay [1] was determined as 624 nM. Regarding `CCNC(=O)c1nnc2c(-c3cnc(OC)c(F)c3)cccc2c1N`, the inhibition constant (Ki) in assay [1] amounted to 9 nM. Also, in assay [2], the “Relative Potentiation for GABAA1” value is recorded as −0.010. Turning to `COc1ccc(F)cc1-c1cccc2c(N)c(C(=O)NC3CC3)nnc12`, the inhibition constant Ki in assay [1] turned out to be 8.22 nM. Also, the “Relative Potentiation for GABAA1” value in assay [2] is on record as −0.028. `COc1ccncc1-c1cccc2c(N)c(C(=O)NC3CC3)nnc12`: the inhibitory constant (Ki) in assay [1] was 0.785 nM. In addition, the “Relative Potentiation for GABAA1” value in assay [2] stood at 0.077. For `COc1ncccc1-c1cccc2c(N)c(C(=O)NC3CC3)nnc12`, the inhibitory constant (Ki) in assay [1] was 0.501 nM. Moreover, the “Relative Potentiation for GABAA1” value in assay [2] is on record as −0.054. For the compound `COc1ccc(-c2cccc3c(N)c(C(=O)NC4CCC4)nnc23)c(OC)c1`, the Ki in assay [1] is 0.927 nM. Further, the “Relative Potentiation for GABAA1” value in assay [2] turned out to be 0.091.

In the case of `Cc1ccc(-c2cccc3c(N)c(C(=O)NC4CC4)nnc23)cn1`, the Ki in assay [1] was 4.02 nM. In assay [3], the “Relative Potentiation for GABAA2” value was determined as 0.074.

As to `CCNC(=O)c1nnc2c(-c3ccc(OC)cc3OC)cccc2c1N`, the Ki in assay [1] stood at 4.54 nM. The “Relative Potentiation for GABAA1” value in assay [2] is −0.006.

In the case of `CCCNC(=O)c1nnc2c(-c3c(Cl)cccc3OC)cccc2c1N` [drawing 298], in assay [2], the “Relative Potentiation for GABAA1” value is 0.004. Further, the “Relative Potentiation for GABAA2” value in assay [3] is given as 0.063. As for `CCCNC(=O)c1nnc2c(-c3c(Cl)cccc3OC)cccc2c1N` [drawing 410], the “Relative Potentiation for GABAA1” value in assay [2] was −0.040.

The values above are taken from US7425556B2 (priority 2005, dated 2008).
